From patent EP0376166A1, “Condensed quinoline system compound and process of preparation thereof” (MECT CORPORATION, priority 1988, dated 1990)

Experiments:
KB Cell = assay: Inhibition of multiplication (growth) of KB cells, in vitro; format: cell-based, human; conditions: Homo sapiens, 72 h, concentration for 50% growth inhibition vs control, compound added Day 1, cells counted Day 4, read-out: Conc.(ED50)
Method: KB cells, carcinomatous cell tumors, were transferred to in vitro floatation incubator systems, and added respectively with compounds of Examples 1 to 33. The results of cultivation added with these compounds were compared with the results of the control which was not added with any compound.
Cell used: KB Cell (Originating from human mouth epidermal cancer) Culture medium: Eagles minimal essential medium (MEM) supplemented with 10% calf serum Cultivation: 37°C carbon dioxide gas incubator (5% CO₂)
Day 0: KB cells were diluted in the culture medium to adjust the KB cell density to 2 x 10⁴/ml. Three ml of the cell suspension was inoculated in each of 60 mm plastic dishes. Two dishes per standard dosage were used. Day 1: Test compound was added to the medium so that the final concentrations were set to 100, 30, 10, 3 and 1 µg/ml. Day 4: Cells were scraped off from the dish using trypsin, and the cell number was countered using a Corter counter.
In generally accordance with the stipulations set forth by the National Cancer Institute (NCI), U.S.A., the concentration of compound necessary for exerting 50% growth inhibition (ED₅₀) compared to the control was determined. A compound was judged as effective when ED₅₀ was less than 4 µg/ml.

P-388 = assay: Prolongation of life span in P-388 implanted mice; format: in vivo, CDF mouse; conditions: for response vs control in vivo at 12.5 mg/kg / response vs control in vivo at 25 mg/kg / response vs control in vivo at 50 mg/kg / response vs control in vivo at 100 mg/kg / response vs control in vivo at 200 mg/kg: P388, ip, T/C %, Day 1 and Day 5, P-388 10⁶ cells/mouse i.p., read-out: Ratio of Life Prolongation (%); for cure: cured mice per group of 6; for response vs control in vivo at 200 mg/kg: dosage 200 mg/kg
Method: Animal used: CDF mouse (6 mice/group) Tumor: P-388 Number of implanted cells: 10⁶ cells/mouse Implanted site: i.p. Day of administration: Day 1 and Day 5 Dosage: LD₅₀ or 400 mg/kg/day at the maximum

SMILES | IC50 (KB Cell) [µg/mL] | response vs control in vivo at 12.5 mg/kg (P-388; dosage 12.5 mg/kg) [%] | response vs control in vivo at 25 mg/kg (P-388; dosage 25 mg/kg) [%] | response vs control in vivo at 50 mg/kg (P-388; dosage 50 mg/kg) [%] | cure (P-388; dosage 25 mg/kg) | cure (P-388; dosage 50 mg/kg) | response vs control in vivo at 100 mg/kg (P-388; dosage 100 mg/kg) [%] | response vs control in vivo at 200 mg/kg (P-388) [%] | cure (P-388; dosage 100 mg/kg) | cure (P-388; dosage 12.5 mg/kg)
COc1cc(NS(C)(=O)=O)ccc1Nc1c2ccccc2nc2c1[nH]c1ccc(Cl)cc12 [Compound 12] | < 0.3 | 231 | 242 | 315 | 1/6 | 1/6 |  |  |  | 
COc1cc(NS(C)(=O)=O)ccc1Nc1c2ccccc2nc2c1[nH]c1ccc(C)cc12 [Compound 13, 6-(4-methanesulfonamide-2-methoxyanilino)-2-methylindolo[3,2-b]quinoline] | < 0.3 | 189 | 192 | 115 |  |  |  |  |  | 
COC(=O)Nc1ccc(Nc2c3ccccc3nc3c2[nH]c2ccccc23)c(OC)c1 [Compound 14] | < 0.3 |  |  | 282 |  |  | 266 | 221 | 1/6 | 
COc1cc(NC(C)=O)ccc1Nc1c2ccccc2nc2c1[nH]c1ccccc12 [Compound 15] | < 0.3 |  |  | 263 |  |  | 240 | 76 | 1/6 | 
COc1cc(NS(C)(=O)=O)ccc1Nc1c2ccccc2nc2c1[nH]c1cccc(C)c12 [Compound 16, 6-(4-methanesulfonamide-2-methoxyanilino)-1-methylindolo[3,2-b]quinoline] | < 0.3 | 240 | 288 | 269 | 2/6 |  |  |  |  | 2/6
COc1cc(NS(C)(=O)=O)ccc1Nc1c2ccccc2nc2c1[nH]c1cc(C)ccc12 [Compound 17, 6-(4-methanesulfoneamide-2-methoxyanilino)-3-methylindolo[3,2-b]quinoline] | < 0.3 | 153 | 77 | 75 |  |  |  |  |  | 

Further lines, with some results ahead:

IC50 (KB Cell) [µg/mL] | SMILES | response vs control in vivo at 12.5 mg/kg (P-388; dosage 12.5 mg/kg) [%] | response vs control in vivo at 25 mg/kg (P-388; dosage 25 mg/kg) [%] | response vs control in vivo at 50 mg/kg (P-388; dosage 50 mg/kg) [%] | cure (P-388; dosage 25 mg/kg) | cure (P-388; dosage 50 mg/kg) | response vs control in vivo at 100 mg/kg (P-388; dosage 100 mg/kg) [%] | response vs control in vivo at 200 mg/kg (P-388) [%] | cure (P-388; dosage 100 mg/kg) | cure (P-388; dosage 12.5 mg/kg)
< 0.3 | COc1cc(NS(C)(=O)=O)ccc1Nc1c2ccccc2nc2c1[nH]c1ccc([N+](=O)[O-])cc12 [Compound 18, 6-(4-methanesulfonamide-2-methoxyanilino)-2-nitroindolo[3,2-b]quinoline] |  |  |  |  |  |  |  |  | 1/6
< 0.3 | COc1cc(NS(C)(=O)=O)ccc1Nc1c2ccccc2nc2c1[nH]c1ccc(F)cc12 [Compound 19, 2-fluoro-6-(4-methanesulfonamide-2-methoxyanilino)indolo[3,2-b]quinoline] | 313 | 252 |  | 2/6 |  |  |  |  | 3/6
< 0.3 | COc1cc(O)ccc1Nc1c2ccccc2nc2c1[nH]c1ccccc12 [Compound 20] | 179 | 131 |  | 1/6 |  |  |  |  | 
< 0.3 | COc1cc(OC(C)=O)ccc1Nc1c2ccccc2nc2c1[nH]c1ccccc12 [Compound 21] |  | 179 | 185 |  | 1/6 |  |  |  | 
< 0.3 | COc1cc(NS(C)(=O)=O)ccc1Nc1c2ccccc2nc2c1[nH]c1ccc(N)cc12 [Compound 22, 2-amino-6-(4-methanesulfonamide-2-methoxyanilino)indolo[3,2-b]quinoline] | 171 | 200 |  |  |  |  |  |  | 
